Measurements taken from patent US8404713B2, “Quinolinone derivatives as PARP inhibitors” (Janssen Pharmaceutica NV, priority 2007, dated 2013).

Tests used:
TANK-2 enzyme = target: T1, TANK-2 enzyme (Homo sapiens, UniProt Q9H2K2); experiment: In vitro scintillation proximity assay (SPA) for TANK-2 inhibitory activity; type: biochemical; conditions: auto-poly(ADP-ribosyl)ation, Ni flash plates; 96-well results if available, otherwise 384-well; tested between 10^-5 M and 3x10^-8 M; read-out: in vitro SPA assay TANK-2 pIC50 (converted)
T1 construct: made in house
T1 sequence (Q9H2K2 1-1166): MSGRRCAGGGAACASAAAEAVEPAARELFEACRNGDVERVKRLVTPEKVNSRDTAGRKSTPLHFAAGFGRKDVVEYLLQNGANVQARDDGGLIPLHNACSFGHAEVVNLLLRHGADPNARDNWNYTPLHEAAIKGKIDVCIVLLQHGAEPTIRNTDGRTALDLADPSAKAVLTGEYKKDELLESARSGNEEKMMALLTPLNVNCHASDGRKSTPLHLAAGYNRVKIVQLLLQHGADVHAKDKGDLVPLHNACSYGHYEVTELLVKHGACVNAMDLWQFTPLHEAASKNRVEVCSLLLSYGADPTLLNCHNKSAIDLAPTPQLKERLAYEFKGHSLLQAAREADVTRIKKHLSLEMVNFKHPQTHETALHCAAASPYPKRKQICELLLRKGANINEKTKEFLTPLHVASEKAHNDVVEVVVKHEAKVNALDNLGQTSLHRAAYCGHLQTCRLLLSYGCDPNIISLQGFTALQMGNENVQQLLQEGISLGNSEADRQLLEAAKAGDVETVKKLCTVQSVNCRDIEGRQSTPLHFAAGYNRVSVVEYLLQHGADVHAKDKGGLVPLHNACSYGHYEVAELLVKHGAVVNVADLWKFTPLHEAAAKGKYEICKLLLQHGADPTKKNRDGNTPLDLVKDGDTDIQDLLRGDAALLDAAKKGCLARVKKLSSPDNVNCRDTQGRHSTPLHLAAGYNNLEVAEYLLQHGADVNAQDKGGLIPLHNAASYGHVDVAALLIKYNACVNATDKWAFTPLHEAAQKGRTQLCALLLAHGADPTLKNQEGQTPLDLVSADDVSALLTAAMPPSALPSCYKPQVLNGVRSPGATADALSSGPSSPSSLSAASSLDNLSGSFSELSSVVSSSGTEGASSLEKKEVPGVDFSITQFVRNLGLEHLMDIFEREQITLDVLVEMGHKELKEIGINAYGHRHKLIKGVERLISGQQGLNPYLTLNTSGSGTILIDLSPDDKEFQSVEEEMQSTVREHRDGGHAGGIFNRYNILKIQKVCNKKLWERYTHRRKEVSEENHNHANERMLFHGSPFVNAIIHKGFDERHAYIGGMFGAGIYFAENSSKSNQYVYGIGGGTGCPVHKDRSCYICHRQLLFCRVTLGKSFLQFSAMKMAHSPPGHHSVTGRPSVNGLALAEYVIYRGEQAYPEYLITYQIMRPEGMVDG
Method: C.2. In Vitro Scintillation Proximity Assay (SPA) for TANK-2 Inhibitory Activity
Compounds of the present invention were tested in an in vitro assay based on SPA technology with Ni Flash plates (96 or 384 well).
In principle, the assay relies upon SPA technology for the detection of auto-poly(ADP-ribosyl)ation of TANK-2 protein using [^3H]-nicotinamide adenine dinucleotide ([^3H]-NAD^+) as ADP-ribosyl donor.
A stock solution of 100 nM [^3H]-NAD^+/NAD (0.1 mCi/ml, supplier: Perkin Elmer) and 0.25 mM NAD (Sigma) was made in assay buffer (60 mM Tris/HCl, pH 7.4; 0.9 mM DTT; 6 mM MgCl2). The TANK-2 enzyme was produced as described in EP1238063. 60 μl of assay buffer, together with 1 μl of compound in DMSO, 20 μl of [^3H]-NAD^+/NAD and 20 μl of TANK-2 enzyme (final concentration 8 μg/ml) was added per well into a 96-well Ni-coated flash plate (Perkin Elmer). After incubation of the mixture for 120 min. at room temperature, the reaction was terminated by adding 60 μl of stopsolution (42.6 mg NAD in 6 ml H2O). The plates were covered with a plate sealer and placed in a TopCountNX™ (Packard) for scintillation counting. Values were expressed as counts per minute (cpm). For each experiment, controls (containing TANK-2 enzyme and DMSO without compound), a blank incubation (containing DMSO but no TANK-2 enzyme or compound) and samples (containing TANK-2 enzyme and compound dissolved in DMSO) were run in parallel. All compounds tested were dissolved and eventually further diluted in DMSO. […] In each test, the blank value was subtracted from both the control and the sample values. The control sample represented maximal TANK-2 enzyme activity. For each sample, the amount of cpm was expressed as a percentage of the mean cpm value of the controls. When appropriate, IC50-values (concentration of the drug, needed to reduce the TANK-2 enzyme activity to 50% of the control) were computed using linear interpolation between the experimental points just above and below the 50% level. Herein the effects of test compounds are expressed as pIC50 (the negative log value of the IC50-value). As reference compounds, 3-aminobenzamide and 4-amino-1,8-naphtalimide were included to validate the SPA assay. Herein the assay was described using 96-well plates. In the assay using 384-well plates the same final concentrations were used and volumes were adapted.

Human PARP-1 enzyme = target: T2, Human PARP-1 enzyme (Homo sapiens, UniProt P09874); experiment: In vitro scintillation proximity assay (SPA) for PARP-1 inhibitory activity; type: biochemical; conditions: nicked DNA activated PARP-1, [3H]-NAD+, biotinylated histones; tested between 10^-5 M and 3x10^-9 M; read-out: in vitro SPA assay PARP-1 pIC50 (converted)
T2 construct: purchased Trevigen
Method: C.1. In Vitro Scintillation Proximity Assay (SPA) for PARP-1 Inhibitory Activity
Compounds of the present invention were tested in an in vitro assay based on SPA technology (proprietary to GE healthcare).
In principle, the assay relies upon the well established SPA technology for the detection of poly(ADP-ribosyl)ation of biotinylated target proteins, i.e histones. This ribosylation is induced using nicked DNA activated PARP-1 enzyme and [^3H]-nicotinamide adenine dinucleotide ([^3H]-NAD^+) as ADP-ribosyl donor.
Histones (type II-A, supplier: Sigma) were biotinylated using the biotinylation kit of Amersham and stored aliquoted at −20° C. A stock solution of 100 mg/ml SPA poly(vinyl toluene) (PVT) beads (supplier: Amersham) was made in PBS. A stock solution of 61.6 nM [^3H]-NAD^+ was made by adding [^3H]-NAD^+ (0.1 mCi/ml, supplier: Perkin Elmer) to incubation buffer (50 mM Tris/HCl, pH 8; 0.2 mM DTT; 4 mM MgCl2). A solution of 4 mM NAD^+ (supplier: Sigma) was made. Human PARP-1 enzyme was obtained from Trevigen. Biotinylated histones and PVT-SPA beads were mixed and pre-incubated for 30 min. at room temperature. PARP-1 enzyme (concentration was lot dependent) was mixed with the nicked DNA and the mixture was pre-incubated for 30 min. at 4° C. Equal parts of this histones/PVT-SPA beads solution and PARP-1 enzyme/DNA solution were mixed and 75 μl of this mixture together with 1 μl of compound in DMSO and 25 μl of [^3H]-NAD^+ was added per well into a 96-well microtiterplate. The final concentrations in the incubation mixture were 2 μg/ml for the biotinylated histones, 2 mg/ml for the PVT-SPA beads, 0.25 μg/ml for the nicked DNA and between 0.1-0.2 μg/ml for the PARP-1 enzyme. After incubation of the mixture for 20 min. at room temperature, the reaction was terminated by adding 100 μl of 4 mM NAD^+ in water (final concentration 2 mM) and plates were mixed. The beads were sedimented by centrifugation (10 min, 800 rpm). and plates transferred to a TopCountNXT™ (Packard) for scintillation counting, values were expressed as counts per minute (cpm). For each experiment, controls (containing PARP-1 enzyme and DMSO without compound), a blank incubation (containing DMSO but no PARP-1 enzyme, no DNA or compound) and samples (containing PARP-1 enzyme, DNA and compound dissolved in DMSO) were run in parallel. All compounds tested were dissolved and eventually further diluted in DMSO. A dose-response curve was made wherein the compounds were tested at concentrations between 10^−5M and 3×10^−9M. In each test, the blank value was subtracted from both the control and the sample values. The control sample represented maximal PARP-1 enzyme activity. For each sample, the amount of cpm was expressed as a percentage of the mean cpm value of the controls. When appropriate, IC50-values (concentration of the drug, needed to reduce the PARP-1 enzyme activity to 50% of the control) were computed using linear interpolation between the experimental points just above and below the 50% level. Herein the effects of test compounds are expressed as pIC50 (the negative log value of the IC50-value). As a reference compound, 4-amino-1,8-naphthalimide was included to validate the SPA assay.

T2 sequence (P09874 whole entry): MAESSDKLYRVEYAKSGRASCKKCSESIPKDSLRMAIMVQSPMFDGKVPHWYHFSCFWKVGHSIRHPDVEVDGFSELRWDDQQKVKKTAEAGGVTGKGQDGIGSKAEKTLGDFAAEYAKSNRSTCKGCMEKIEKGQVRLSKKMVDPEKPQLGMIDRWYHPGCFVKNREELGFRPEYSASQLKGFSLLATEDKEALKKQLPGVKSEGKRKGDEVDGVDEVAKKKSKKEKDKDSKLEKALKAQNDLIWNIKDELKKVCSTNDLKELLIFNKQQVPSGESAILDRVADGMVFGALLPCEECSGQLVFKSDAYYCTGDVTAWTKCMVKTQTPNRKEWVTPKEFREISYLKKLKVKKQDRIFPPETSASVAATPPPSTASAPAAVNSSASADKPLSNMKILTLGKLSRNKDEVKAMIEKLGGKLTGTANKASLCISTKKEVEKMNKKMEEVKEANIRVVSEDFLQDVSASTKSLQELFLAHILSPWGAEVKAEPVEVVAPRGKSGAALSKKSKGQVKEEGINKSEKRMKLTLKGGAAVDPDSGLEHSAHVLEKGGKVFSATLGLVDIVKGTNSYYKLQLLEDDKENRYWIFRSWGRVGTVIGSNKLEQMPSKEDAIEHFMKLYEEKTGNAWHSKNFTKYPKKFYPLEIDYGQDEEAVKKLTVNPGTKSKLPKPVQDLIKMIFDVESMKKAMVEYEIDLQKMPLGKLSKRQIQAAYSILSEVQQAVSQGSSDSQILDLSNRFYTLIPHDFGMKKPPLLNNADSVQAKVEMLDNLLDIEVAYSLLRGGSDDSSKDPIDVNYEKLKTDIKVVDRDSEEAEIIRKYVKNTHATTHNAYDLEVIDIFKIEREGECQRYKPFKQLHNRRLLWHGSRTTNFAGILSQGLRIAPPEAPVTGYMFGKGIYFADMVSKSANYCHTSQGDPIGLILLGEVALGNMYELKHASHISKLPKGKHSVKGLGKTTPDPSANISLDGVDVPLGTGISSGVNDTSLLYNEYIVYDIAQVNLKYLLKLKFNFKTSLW

SMILES | IC50 (TANK-2 enzyme) [nM] | IC50 (Human PARP-1 enzyme) [nM]
CCc1cc2ccc(CN3Cc4ccccc4C3)cc2[nH]c1=O [Compound 63] | 455 | 39.2
CCc1cc2ccc(CN3CCCC3)cc2[nH]c1=O [Compound 61] | 4220 | 5.36
Cc1cc2ccc(C(=O)N3CC=C(c4ccccc4)CC3)cc2[nH]c1=O [Compound 59] | 818 | 129
CCc1cc2ccc(C(O)CN3CCC(Cc4ccccc4)CC3)cc2[nH]c1=O (stereo not shown) [Compound 34] | 391 | 94.6
CCc1cc2ccc(CNCCCc3ccccc3)cc2[nH]c1=O [Compound 46] | 5380 | 9.48
CCc1cc2ccc(CNCc3ccccc3)cc2[nH]c1=O [Compound 49] | 155 | 42.9
CCc1cc2ccc(CN(C)CCOC)cc2[nH]c1=O [Compound 38] | 867 | 11.9
CCc1cc2ccc(CN3CCN(c4ccc(OC)c(OC)c4)CC3)cc2[nH]c1=O [Compound 41] | 500 | 34.2
CCc1cc2ccc(CNCc3ccc(F)cc3)cc2[nH]c1=O [Compound 48] | 254 | 24.4
Cc1cc2ccc(C(C3CCCCC3)N3CCC(c4ccccc4)CC3)cc2[nH]c1=O (stereo not shown) [Compound 65] | > 10000 | 4070
CCc1cc2ccc(CN3CCN(c4ncccn4)CC3)cc2[nH]c1=O [Compound 30] | 188 | 14.3
CCc1cc2ccc(CN3CCN(c4ncc(C(=O)O)cn4)CC3)cc2[nH]c1=O [Compound 12] | 65.5 | 77.1
CCc1cc2ccc(CNCCN3CCN(c4ncccn4)CC3)cc2[nH]c1=O [Compound 24] | 1000 | 80.4
CCc1cc2ccc(CN3CCC(Cc4ccccc4)CC3)cc2[nH]c1=O [Compound 31] | 3120 | 403
CCc1cc2ccc(CNCc3ccncc3)cc2[nH]c1=O [Compound 47] | 144 | 124
CCc1cc2ccc(CN3CCN(c4ncc(C(=O)NCCO)cn4)CC3)cc2[nH]c1=O [Compound 62] | 33 | 8.95
CCc1cc2c(OC)cc(CN3CCN(c4ccc(C#N)cn4)CC3)cc2[nH]c1=O [Compound 69] | 57.5 | 

Other lines, results leading:

IC50 (TANK-2 enzyme) [nM] | IC50 (Human PARP-1 enzyme) [nM] | SMILES
780 | 84.7 | CCc1cc2ccc(C(CO)N3CCN(c4ncccn4)CC3)cc2[nH]c1=O (stereo not shown) [Compound 33]
2320 | 95.9 | Cc1cc2ccc(C(C)N3CCN(c4cccc(Cl)c4)CC3)cc2[nH]c1=O (stereo not shown) [Compound 58]
> 10000 | 92 | COCCNC1CCN(C(C)c2ccc3cc(C)c(=O)[nH]c3c2)CC1 (stereo not shown) [Compound 55]
1910 | 275 | Cc1cc2ccc(C(C3CCCCC3)N3CCN(c4ccc(C#N)cn4)CC3)cc2[nH]c1=O (stereo not shown) [Compound 70]
> 10000 | 708 | Cc1cc2ccc(C(C3CCCCC3)N3CCN(c4ccccc4C#N)CC3)cc2[nH]c1=O (stereo not shown) [Compound 67]
> 10000 | 309 | Cc1cc2ccc(C(C3CCCCC3)N3CCN(c4ccccn4)CC3)cc2[nH]c1=O (stereo not shown) [Compound 75]
1980 | 237 | Cc1cc2ccc(CN3CCN(c4ncccn4)CC3)cc2[nH]c1=O [Compound 26]
1780 | 4.27 | CCc1cc2c(OC)cc(CN3CCN(c4ccccc4Cl)CC3)cc2[nH]c1=O [Compound 71]
1230 | 195 | Cc1cc2ccc(C(C(C)C)N3CCN(c4ccc(C#N)cn4)CC3)cc2[nH]c1=O (stereo not shown) [Compound 66]
933 | ≥ 10000 | COc1ccccc1N1CCN(C(c2ccc3cc(C)c(=O)[nH]c3c2)C2CCCCC2)CC1 (stereo not shown) [Compound 72]
1860 | 6.46 | Cc1cc2ccc(C(C)N3CCC(c4ccccc4)CC3)cc2[nH]c1=O (stereo not shown) [Compound 74]
1920 | 225 | Cc1cc2ccc(C(C)N3CCN(c4ncccc4C(F)(F)F)CC3)cc2[nH]c1=O (stereo not shown) [Compound 56]
1550 | 0.646 | Cc1cc2ccc(C(C)N3CCN(c4ccccc4Cl)CC3)cc2[nH]c1=O (stereo not shown) [Compound 76]
1710 | 16.3 | CCc1cc2ccc(CN3CCN(c4cccc(Cl)c4)CC3)cc2[nH]c1=O [Compound 45]
